The supplement of paper PMC11061612

What was measured:
Assay in all cases: combination Emax (second highest fraction inhibited in the dose matrix, 72 h); higher = more inhibition; extreme values may be limits of the assay
[1] = system: KMRC-1 (Kidney Carcinoma)
In short: (§1)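 Cell lines grown in DMEM/F12 or RPMI with 10% FBS were plated in 1536-well plates and held 24 hours at 37°C, 5% CO2 before 72 hours of exposure to two-drug dose matrices, with DMSO typically at 0.2%. CellTiter-Glo 2.0 luminescence gave viability, which was converted to inhibition. Vehicle wells were set to 0 and blank wells to 1. Combination Emax is the second-highest inhibition in the matrix, and Bliss excess is the observed combination effect minus the expected EA + EB − EA·EB, where EA and EB are the single-agent effects.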

[2] = system: COLO-668 (Small Cell Lung Carcinoma)
In short: as §1

[3] = system: NCI-H1355 (Lung Adenocarcinoma)
In short: as §1

[4] = system: Mo-T (Other Blood Carcinomas)
In short: as §1

[5] = system: KGN (Other Solid Carcinomas)
In short: as §1

[6] = system: MDA-MB-453 (Breast Carcinoma)
In short: as §1

[7] = system: DU-145 (Prostate Carcinoma)
In short: as §1

[8] = system: Ca-Ski (Cervical Carcinoma)
In short: as §1

[9] = system: NCI-H522 (Lung Adenocarcinoma)
In short: as §1

COLO-679 (Melanoma) = system: COLO-679 (Melanoma)
In short: as §1

[10] = system: SNU-387 (Hepatocellular Carcinoma)
In short: as §1

[11] = system: SKN (Other Solid Carcinomas)
In short: as §1

[12] = system: SK-LU-1 (Lung Adenocarcinoma)
In short: as §1

[13] = system: A4-Fuk (B-Lymphoblastic Leukemia)
In short: as §1

[14] = system: MOLT-4 (T-Lymphoblastic Leukemia)
In short: as §1

[15] = system: CADO-ES1 (Ewing's Sarcoma)
In short: as §1

[16] = system: NCI-H650 (Lung Adenocarcinoma)
In short: as §1

[17] = system: OACM5-1 (Esophageal Adenocarcinoma)
In short: as §1

[18] = system: KOPN-8 (B-Lymphoblastic Leukemia)
In short: as §1

[19] = system: NCI-H1838 (Lung Adenocarcinoma)
In short: as §1

Structure (SMILES)	combination Emax [1]	combination Emax [2]	combination Emax [3]	combination Emax [4]	combination Emax [5]	combination Emax [6]	combination Emax [7]	combination Emax [8]	combination Emax [9]	combination Emax (COLO-679 (Melanoma))	combination Emax [10]	combination Emax [11]	combination Emax [12]	combination Emax [13]	combination Emax [14]	combination Emax [15]	combination Emax [16]	combination Emax [17]	combination Emax [18]	combination Emax [19]
C=CCn1c(=O)c2cnc(Nc3ccc(N4CCN(C)CC4)cc3)nc2n1-c1cccc(C(C)(C)O)n1 [AZD1775] + CCc1c2c(nc3ccc(O)cc13)-c1cc3c(c(=O)n1C2)COC(=O)[C@]3(O)CC [SN-38] (first compound max 1 µM, partner max 0.3 µM)	0.534	0.956	0.659	0.817	0.833	0.696	0.598	1	0.7	0.632	0.497	0.756	0.645	1	1					
C=CCn1c(=O)c2cnc(Nc3ccc(N4CCN(C)CC4)cc3)nc2n1-c1cccc(C(C)(C)O)n1 [AZD1775] + Nc1ccn([C@@H]2O[C@H](CO)[C@@H](O)C2(F)F)c(=O)n1 [Gemcitabine] (first compound max 1 µM, partner max 0.3 µM)	0.717	0.738	0.614	0.766	0.892	0.539	0.542	0.828	0.608	0.76	0.552	0.633	0.457	0.965	1					
CN(CCO)CC[C@H](CSc1ccccc1)Nc1ccc(S(=O)(=O)NC(=O)c2ccc(N3CCC([C@@H](O)c4ccccc4-c4ccc(Cl)cc4)CC3)cc2)cc1S(=O)(=O)C(F)(F)F [AZD4320] + CS(=O)(=O)CCNCc1ccc(-c2ccc3ncnc(Nc4ccc(OCc5cccc(F)c5)c(Cl)c4)c3c2)o1 [Lapatinib] (first compound max 1 µM, 7x7, partner max 10 µM)	0.944	0.975	0.264	0.959	0.494	0.548	0.174	1	0.237	0.308	0.939	0.759	0.47	0.931	1					
Cc1c2c(nn1C)CSCc1cc(n(C)n1)CSc1cc(c3ccccc3c1)OCCCc1c(C(=O)O)n(C)c3c-2c(Cl)ccc13 [AZD5991] + CC(=O)O[C@H]1C(=O)[C@@]2(C)[C@H]([C@H](OC(=O)c3ccccc3)[C@]3(O)C[C@H](OC(=O)[C@H](O)[C@@H](NC(=O)c4ccccc4)c4ccccc4)C(C)=C1C3(C)C)[C@]1(OC(C)=O)CO[C@@H]1C[C@@H]2O [Paclitaxel] (first compound max 1 µM, 7x7, partner max 3 µM)	0.508	0.46	0.76	0.658	0.916	0.92	0.686	0.919	0.969	0.565	0.913	0.694	0.39	1	0.991					
Cc1c2c(nn1C)CSCc1cc(n(C)n1)CSc1cc(c3ccccc3c1)OCCCc1c(C(=O)O)n(C)c3c-2c(Cl)ccc13 [AZD5991] + CS(=O)(=O)CCNCc1ccc(-c2ccc3ncnc(Nc4ccc(OCc5cccc(F)c5)c(Cl)c4)c3c2)o1 [Lapatinib] (first compound max 1 µM, 7x7, partner max 10 µM)	0.54	0.285	0.326	0.371	0.454	0.527	0.198	0.735	0.626	0.188	0.459	0.223	0.229	1	0.604					
Cc1c2c(nn1C)CSCc1cc(n(C)n1)CSc1cc(c3ccccc3c1)OCCCc1c(C(=O)O)n(C)c3c-2c(Cl)ccc13 [AZD5991] + Nc1ccn([C@@H]2O[C@H](CO)[C@@H](O)C2(F)F)c(=O)n1 [Gemcitabine] (first compound max 1 µM, 7x7, partner max 0.3 µM)	0.737	0.829	0.455	0.685	0.9	0.731	0.441	0.757	0.784	0.782	0.565	0.582	0.19	1	0.992					
C[C@@H]1COCCN1c1cc(C2([S@](C)(=N)=O)CC2)nc(-c2ccnc3[nH]ccc23)n1 [AZD6738] + C1CC(C1)(C(=O)[O-])C(=O)[O-].N.N.[Pt+2] [Carboplatin] (first compound max 10 µM, 7x7, partner max 10 µM)	0.521	0.567	0.581	0.366	0.79	0.66	0.351	0.649	0.194	0.625	0.289	0.427	0.497	0.823	0.984					
CC1(C)CCC(CN2CCN(c3ccc(C(=O)NS(=O)(=O)c4ccc(NCC5CCOCC5)c([N+](=O)[O-])c4)c(Oc4cnc5[nH]ccc5c4)c3)CC2)=C(c2ccc(Cl)cc2)C1 [Venetoclax] + CN(C)CCCOc1ccc(-c2ccc3ncc4c(c3c2)n(C2CCOCC2)c(=O)n4C)cn1 [AZD0156] (first compound max 1 µM, 7x7, partner max 1 µM)	0.0988	0.452	0.296	0.558	0.488	0.169	0.0977	0.369	0.141	0.107	0.201	0.235		0.659	0.741	0.692	0.0987	0.262	0.813	0.303
CC1(C)CCC(CN2CCN(c3ccc(C(=O)NS(=O)(=O)c4ccc(NCC5CCOCC5)c([N+](=O)[O-])c4)c(Oc4cnc5[nH]ccc5c4)c3)CC2)=C(c2ccc(Cl)cc2)C1 [Venetoclax] + COc1cc(Nc2ncc3c(n2)-c2ccc(Cl)cc2C(c2c(F)cccc2OC)=NC3)ccc1C(=O)O [Alisertib] (first compound max 1 µM, 7x7, partner max 10 µM)	0.384	0.474	0.473	0.71	0.685	0.314	0.268	0.64	0.277	0.282	0.191	0.577		0.822	0.959	0.957	0.319	0.663	1	0.437
CC1(C)CCC(CN2CCN(c3ccc(C(=O)NS(=O)(=O)c4ccc(NCC5CCOCC5)c([N+](=O)[O-])c4)c(Oc4cnc5[nH]ccc5c4)c3)CC2)=C(c2ccc(Cl)cc2)C1 [Venetoclax] + C[C@@H]1COCCN1C2=NC(=NC(=C2)C3(CC3)[S@](=N)(=O)C)C4=C5C=CNC5=NC=C4 [AZD6738] (first compound max 1 µM, 7x7, partner max 10 µM)	0.486	0.877	0.696	0.735	0.751	0.761	0.537	0.581	0.161	0.639	0.588	0.491		0.775	1	0.952	0.276	0.678	1	0.6
CC1(C)CCC(CN2CCN(c3ccc(C(=O)NS(=O)(=O)c4ccc(NCC5CCOCC5)c([N+](=O)[O-])c4)c(Oc4cnc5[nH]ccc5c4)c3)CC2)=C(c2ccc(Cl)cc2)C1 [Venetoclax] + C[C@@H](Nc1cc(F)cc(F)c1)c1cc(C(=O)N(C)C)cc2c(=O)cc(N3CCOCC3)oc12 [AZD8186] (first compound max 1 µM, 7x7, partner max 3 µM)	0.532	0.438	0.196	0.632	0.333	0.703	0.153	0.114	0.0652	0.273	0.21	0.456		0.655	0.422	0.625	0.142	0.495	0.829	0.0996
CC1(C)CCC(CN2CCN(c3ccc(C(=O)NS(=O)(=O)c4ccc(NCC5CCOCC5)c([N+](=O)[O-])c4)c(Oc4cnc5[nH]ccc5c4)c3)CC2)=C(c2ccc(Cl)cc2)C1 [Venetoclax] + Cc1cc2ncnn2cc1Nc1ncc2c(n1)n(C1CCOCC1)c(=O)n2C [AZD7648] (first compound max 1 µM, 7x7, partner max 10 µM)	0.181	0.447	0.346	0.616	0.471	0.198	0.137	0.209	0.112	0.133	0.167	0.257		0.667	0.445	0.703	0.197	0.495	0.739	0.344
CC1(C)CCC(CN2CCN(c3ccc(C(=O)NS(=O)(=O)c4ccc(NCC5CCOCC5)c([N+](=O)[O-])c4)c(Oc4cnc5[nH]ccc5c4)c3)CC2)=C(c2ccc(Cl)cc2)C1 [Venetoclax] + Cn1cnc2c(F)c(Nc3ccc(Br)cc3Cl)c(C(=O)NOCCO)cc21 [Selumetinib] (first compound max 1 µM, 7x7, partner max 3 µM)	0.135	0.787	0.273	0.618	0.246	0.15	0.184	0.219	0.0772	0.737	0.295	0.136		0.712	0.451	0.632	0.239	0.336	0.971	0.165
